Measured values taken from ChEMBL document CHEMBL3396981, “Synthesis and in vitro biological evaluation of 2-(phenylcarbamoyl)phenyl 4-substituted benzoates” (Bioorg Med Chem, 2015).
≈ marks a conversion by molar mass, not a printed value.

Assays:
[1] = tested on: Mycobacterium tuberculosis; assay: Antimycobacterial activity against INH, RIF, rifabutin, streptomycin, ethambutol, ofloxacin-resistant Mycobacterium tuberculosis 7357/1998 after 14 days by microdilution method; format: functional; conditions: 7357/1998, 336 h
[2] = tested on: Mycobacterium tuberculosis; assay: Antimycobacterial activity against INH, RIF, rifabutin, streptomycin, ethambutol, ofloxacin-resistant Mycobacterium tuberculosis 7357/1998 after 21 days by microdilution method; format: functional; conditions: 7357/1998, 504 h
[3] = tested on: Mycobacterium tuberculosis; assay: Antimycobacterial activity against INH, RIF, rifabutin, streptomycin-resistant Mycobacterium tuberculosis 9449/2006 after 14 days by microdilution method; format: functional; conditions: 9449/2006, 336 h
[4] = tested on: Mycobacterium tuberculosis; assay: Antimycobacterial activity against INH, RIF, rifabutin, streptomycin-resistant Mycobacterium tuberculosis 9449/2006 after 21 days by microdilution method; format: functional; conditions: 9449/2006, 504 h
[5] = tested on: Mycobacterium tuberculosis; assay: Antimycobacterial activity against INH, RIF, rifabutin, streptomycin, ethambutol, ofloxacin, clofazimine-resistant Mycobacterium tuberculosis Praha 4 after 14 days by microdilution method; format: functional; conditions: Praha 4, 336 h
[6] = tested on: Mycobacterium tuberculosis; assay: Antimycobacterial activity against INH, RIF, rifabutin, streptomycin, ethambutol, ofloxacin, clofazimine-resistant Mycobacterium tuberculosis Praha 4 after 21 days by microdilution method; format: functional; conditions: Praha 4, 504 h
[7] = tested on: Mycobacterium tuberculosis; assay: Antimycobacterial activity against INH, RIF, rifabutin, streptomycin, ethambutol, ofloxacin, gentamicin, amikacin-resistant Mycobacterium tuberculosis Praha 131 after 14 days by microdilution method; format: functional; conditions: Praha 131, 336 h
[8] = tested on: Mycobacterium tuberculosis; assay: Antimycobacterial activity against INH, RIF, rifabutin, streptomycin, ethambutol, ofloxacin, gentamicin, amikacin-resistant Mycobacterium tuberculosis Praha 131 after 21 days by microdilution method; format: functional; conditions: Praha 131, 504 h
[9] = Selectivity index, ratio of IC50 for human HepG2 cells to MIC for multidrug-resistant Mycobacterium tuberculosis; format: toxicity, cell-based; conditions: read-out: Selectivity Index
[10] = tested on: Mycobacterium tuberculosis; assay: Antimycobacterial activity against INH, RIF, rifabutin, streptomycin, ethambutol, ofloxacin-resistant Mycobacterium tuberculosis 234/2005 after 14 days by microdilution method; format: functional; conditions: 234/2005, 336 h
[11] = tested on: Mycobacterium tuberculosis; assay: Antimycobacterial activity against INH, RIF, rifabutin, streptomycin, ethambutol, ofloxacin-resistant Mycobacterium tuberculosis 234/2005 after 21 days by microdilution method; format: functional; conditions: 234/2005, 504 h
[12] = tested on: Mycobacterium tuberculosis; assay: Antimycobacterial activity against INH, RIF, rifabutin, streptomycin, ethambutol, clofazimine-resistant Mycobacterium tuberculosis Praha 1 after 14 days by microdilution method; format: functional; conditions: Praha 1, 336 h
[13] = tested on: Mycobacterium tuberculosis; assay: Antimycobacterial activity against INH, RIF, rifabutin, streptomycin, ethambutol, clofazimine-resistant Mycobacterium tuberculosis Praha 1 after 21 days by microdilution method; format: functional; conditions: Praha 1, 504 h

Structure (SMILES)	MIC [1]	MIC [2]	MIC [3]	MIC [4]	MIC [5]	MIC [6]	MIC [7]	MIC [8]	selectivity ratio [9]	MIC [10]	MIC [11]	MIC [12]	MIC [13]
O=C(Oc1ccc(Br)cc1C(=O)Nc1ccc(C(F)(F)F)cc1)c1ccc([N+](=O)[O-])cc1	0.5 µM (≈ 0.255 µg/mL)	0.5 µM (≈ 0.255 µg/mL)	0.5 µM (≈ 0.255 µg/mL)	0.5 µM (≈ 0.255 µg/mL)	0.5 µM (≈ 0.255 µg/mL)	0.5 µM (≈ 0.255 µg/mL)	0.25 µM (≈ 0.127 µg/mL)	0.5 µM (≈ 0.255 µg/mL)	> 100				
Cc1ccc(C(=O)Oc2ccc(Cl)cc2C(=O)Nc2ccc(C(F)(F)F)cc2)cc1	1 µM (≈ 0.434 µg/mL)	1 µM (≈ 0.434 µg/mL)	1 µM (≈ 0.434 µg/mL)	1 µM (≈ 0.434 µg/mL)	1 µM (≈ 0.434 µg/mL)	1 µM (≈ 0.434 µg/mL)	1 µM (≈ 0.434 µg/mL)	1 µM (≈ 0.434 µg/mL)	> 25	2 µM (≈ 0.868 µg/mL)	2 µM (≈ 0.868 µg/mL)	1 µM (≈ 0.434 µg/mL)	1 µM (≈ 0.434 µg/mL)
O=C(Oc1ccc(Cl)cc1C(=O)Nc1ccc(C(F)(F)F)cc1)c1ccc(C(F)(F)F)cc1	0.5 µM (≈ 0.244 µg/mL)	1 µM (≈ 0.488 µg/mL)	1 µM (≈ 0.488 µg/mL)	1 µM (≈ 0.488 µg/mL)			0.5 µM (≈ 0.244 µg/mL)	1 µM (≈ 0.488 µg/mL)		0.5 µM (≈ 0.244 µg/mL)	1 µM (≈ 0.488 µg/mL)	0.5 µM (≈ 0.244 µg/mL)	0.5 µM (≈ 0.244 µg/mL)
O=C(Oc1ccc(Cl)cc1C(=O)Nc1ccc(Cl)c(Cl)c1)c1ccc([N+](=O)[O-])cc1	0.25 µM (≈ 0.116 µg/mL)	0.5 µM (≈ 0.233 µg/mL)	0.25 µM (≈ 0.116 µg/mL)	0.5 µM (≈ 0.233 µg/mL)	0.25 µM (≈ 0.116 µg/mL)	0.5 µM (≈ 0.233 µg/mL)	0.25 µM (≈ 0.116 µg/mL)	0.25 µM (≈ 0.116 µg/mL)	> 100				
O=C(Oc1ccc(Cl)cc1C(=O)Nc1ccc(Cl)c(Cl)c1)c1ccc(Br)cc1	0.125 µM (≈ 0.0624 µg/mL)	0.125 µM (≈ 0.0624 µg/mL)	0.25 µM (≈ 0.125 µg/mL)	0.5 µM (≈ 0.25 µg/mL)	0.25 µM (≈ 0.125 µg/mL)	0.5 µM (≈ 0.25 µg/mL)	0.25 µM (≈ 0.125 µg/mL)	0.25 µM (≈ 0.125 µg/mL)	> 100				
O=C(Oc1ccc(Cl)cc1C(=O)Nc1ccc(C(F)(F)F)cc1)c1ccc(Br)cc1	1 µM (≈ 0.499 µg/mL)	1 µM (≈ 0.499 µg/mL)	1 µM (≈ 0.499 µg/mL)	1 µM (≈ 0.499 µg/mL)			1 µM (≈ 0.499 µg/mL)	1 µM (≈ 0.499 µg/mL)	> 25	2 µM (≈ 0.997 µg/mL)	2 µM (≈ 0.997 µg/mL)	1 µM (≈ 0.499 µg/mL)	1 µM (≈ 0.499 µg/mL)
O=C(Oc1ccc(Cl)cc1C(=O)Nc1ccc(C(F)(F)F)cc1)c1ccc([N+](=O)[O-])cc1	0.5 µM (≈ 0.232 µg/mL)	1 µM (≈ 0.465 µg/mL)	0.5 µM (≈ 0.232 µg/mL)	1 µM (≈ 0.465 µg/mL)	0.25 µM (≈ 0.116 µg/mL)	1 µM (≈ 0.465 µg/mL)	0.5 µM (≈ 0.232 µg/mL)	1 µM (≈ 0.465 µg/mL)	> 50	0.25 µM (≈ 0.116 µg/mL)	1 µM (≈ 0.465 µg/mL)	0.5 µM (≈ 0.232 µg/mL)	1 µM (≈ 0.465 µg/mL)
O=C(Oc1ccc(Br)cc1C(=O)Nc1ccc(C(F)(F)F)cc1)c1ccc(Br)cc1	0.5 µM (≈ 0.272 µg/mL)	1 µM (≈ 0.543 µg/mL)	0.5 µM (≈ 0.272 µg/mL)	1 µM (≈ 0.543 µg/mL)	0.25 µM (≈ 0.136 µg/mL)	0.5 µM (≈ 0.272 µg/mL)	0.5 µM (≈ 0.272 µg/mL)	1 µM (≈ 0.543 µg/mL)	> 50				
O=C(Oc1ccc(Cl)cc1C(=O)Nc1ccc(Cl)c(Cl)c1)c1ccccc1	0.5 µM (≈ 0.21 µg/mL)	0.5 µM (≈ 0.21 µg/mL)	0.5 µM (≈ 0.21 µg/mL)	1 µM (≈ 0.421 µg/mL)			0.5 µM (≈ 0.21 µg/mL)	1 µM (≈ 0.421 µg/mL)		0.25 µM (≈ 0.105 µg/mL)	0.5 µM (≈ 0.21 µg/mL)	0.5 µM (≈ 0.21 µg/mL)	0.5 µM (≈ 0.21 µg/mL)
Cc1ccc(C(=O)Oc2ccc(Br)cc2C(=O)Nc2ccc(C(F)(F)F)cc2)cc1	1 µM (≈ 0.478 µg/mL)	1 µM (≈ 0.478 µg/mL)	1 µM (≈ 0.478 µg/mL)	1 µM (≈ 0.478 µg/mL)	1 µM (≈ 0.478 µg/mL)	1 µM (≈ 0.478 µg/mL)	1 µM (≈ 0.478 µg/mL)	1 µM (≈ 0.478 µg/mL)	> 25	2 µM (≈ 0.957 µg/mL)	2 µM (≈ 0.957 µg/mL)	1 µM (≈ 0.478 µg/mL)	1 µM (≈ 0.478 µg/mL)
O=C(Oc1ccc(Cl)cc1C(=O)Nc1ccc(Cl)c(Cl)c1)c1ccc(C(F)(F)F)cc1	1 µM (≈ 0.489 µg/mL)	2 µM (≈ 0.977 µg/mL)	2 µM (≈ 0.977 µg/mL)	2 µM (≈ 0.977 µg/mL)			2 µM (≈ 0.977 µg/mL)	2 µM (≈ 0.977 µg/mL)		1 µM (≈ 0.489 µg/mL)	2 µM (≈ 0.977 µg/mL)	1 µM (≈ 0.489 µg/mL)	2 µM (≈ 0.977 µg/mL)
O=C(Oc1ccc(Cl)cc1C(=O)Nc1ccc(C(F)(F)F)cc1)c1ccccc1	0.25 µM (≈ 0.105 µg/mL)	0.5 µM (≈ 0.21 µg/mL)	0.5 µM (≈ 0.21 µg/mL)	0.5 µM (≈ 0.21 µg/mL)			0.25 µM (≈ 0.105 µg/mL)	0.5 µM (≈ 0.21 µg/mL)		0.25 µM (≈ 0.105 µg/mL)	0.25 µM (≈ 0.105 µg/mL)	0.5 µM (≈ 0.21 µg/mL)	0.5 µM (≈ 0.21 µg/mL)
O=C(Oc1ccc(Br)cc1C(=O)Nc1ccc(C(F)(F)F)cc1)c1ccc(C(F)(F)F)cc1	1 µM (≈ 0.532 µg/mL)	1 µM (≈ 0.532 µg/mL)	1 µM (≈ 0.532 µg/mL)	1 µM (≈ 0.532 µg/mL)			0.5 µM (≈ 0.266 µg/mL)	1 µM (≈ 0.532 µg/mL)		0.5 µM (≈ 0.266 µg/mL)	1 µM (≈ 0.532 µg/mL)	0.5 µM (≈ 0.266 µg/mL)	1 µM (≈ 0.532 µg/mL)
Cc1ccc(C(=O)Oc2ccc(Cl)cc2C(=O)Nc2ccc(Cl)c(Cl)c2)cc1	1 µM (≈ 0.435 µg/mL)	1 µM (≈ 0.435 µg/mL)	1 µM (≈ 0.435 µg/mL)	1 µM (≈ 0.435 µg/mL)	1 µM (≈ 0.435 µg/mL)	1 µM (≈ 0.435 µg/mL)	1 µM (≈ 0.435 µg/mL)	1 µM (≈ 0.435 µg/mL)	> 25	2 µM (≈ 0.869 µg/mL)	2 µM (≈ 0.869 µg/mL)	1 µM (≈ 0.435 µg/mL)	1 µM (≈ 0.435 µg/mL)
O=C(Oc1ccc(Br)cc1C(=O)Nc1ccc(C(F)(F)F)cc1)c1ccccc1	0.25 µM (≈ 0.116 µg/mL)	0.5 µM (≈ 0.232 µg/mL)	1 µM (≈ 0.464 µg/mL)	1 µM (≈ 0.464 µg/mL)			0.5 µM (≈ 0.232 µg/mL)	1 µM (≈ 0.464 µg/mL)		0.5 µM (≈ 0.232 µg/mL)	0.5 µM (≈ 0.232 µg/mL)	1 µM (≈ 0.464 µg/mL)	1 µM (≈ 0.464 µg/mL)
